{
  "source": "ChEMBL document CHEMBL1128408",
  "about": "“Further evidence supporting the importance of and the restrictions on a carbon-centered radical for high antimalarial activity of 1,2,4-trioxanes like artemisinin” (J Med Chem, 1995)",
  "data": [
    {"system": "Plasmodium falciparum", "experiment": "(§1) In vitro inhibitory activity against Chloroquine-sensitive Plasmodium falciparum NF54 as [3H]hypoxanthine incorporation", "format": "functional, organism-based", "conditions": "not given", "units": {"IC50": "µg/mL"}, "values": [
      {"smiles": "CO[C@H]1O[C@@]2(C)CC[C@H]3CCC[C@@H](CCO)[C@]31OO2", "IC50": 0.034}
    ]},
    {"system": "Plasmodium falciparum", "experiment": "as §1", "format": "functional, organism-based", "conditions": "Plasmodium falciparum; read-out: IC50", "units": {"IC50": "µg/mL"}, "values": [
      {"smiles": "CO[C@H]1O[C@]2(C)OO[C@]13[C@H](CCO)CCC[C@@H]3C[C@@H]2C", "IC50": 0.36},
      {"smiles": "CO[C@H]1O[C@]2(C)OO[C@]13[C@H](CCO)CCC[C@@H]3C[C@H]2C", "IC50": 0.0022},
      {"smiles": "CO[C@H]1O[C@]2(C)OO[C@]13CCCC[C@@H]3C[C@H]2Cc1ccccc1", "IC50": 0.098},
      {"smiles": "CO[C@H]1O[C@@]2(C)CC[C@H]3CCC[C@@H](CCO)[C@]31OO2", "IC50": 0.034},
      {"smiles": "CO[C@H]1O[C@]2(C)OO[C@]13[C@H](CCO)CCC[C@@H]3C[C@H]2C[Si](C)(C)C", "IC50": 0.086},
      {"smiles": "CO[C@H]1O[C@]2(C)OO[C@]13CCCC[C@@H]3C[C@H]2c1ccccc1", "IC50": 0.61},
      {"smiles": "CO[C@H]1O[C@@]2(C)CC[C@H]3CCCC[C@]31OO2", "IC50": 0.22},
      {"smiles": "CO[C@H]1O[C@]2(C)OO[C@]13[C@H](CCO)CCC[C@@H]3C[C@@H]2C[Si](C)(C)C", "IC50": "> 1"},
      {"smiles": "CO[C@H]1O[C@]2(C)OO[C@]13[C@H](CCO)CCC[C@@H]3C[C@@H]2Cc1ccccc1", "IC50": 0.6},
      {"smiles": "CO[C@H]1O[C@]2(C)OO[C@]13[C@H](CCO)CCC[C@@H]3C[C@H]2Cc1ccccc1", "IC50": 0.003},
      {"smiles": "C[C@@H]1CC[C@H]2[C@@H](C)C(=O)O[C@@H]3O[C@@]4(C)CC[C@@H]1[C@]32OO4", "note": "[ARTEMISININ]", "IC50": 0.003}
    ]}
  ]
}
